#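 How tested: cells in 96-well plates exposed to compound for 48 hours at five concentrations. Here, GI50 denotes the concentration required for 50% inhibition of growth. TGI is the concentration that stops growth completely.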
# Columns and labels:
# Assay in all cases: NCI tumour cell line growth inhibition, 48 h
# OVCAR-3 ovarian = system: OVCAR-3 ovarian
# SK-MEL-5 melanoma = system: SK-MEL-5 melanoma
# NCI/ADR-RES ovarian = system: NCI/ADR-RES ovarian
# ACHN renal = system: ACHN renal
# NCI-H23 lung = system: NCI-H23 lung
# UO-31 renal = system: UO-31 renal
# MALME-3M melanoma = system: MALME-3M melanoma
# TK-10 renal = system: TK-10 renal
# SN12C renal = system: SN12C renal
# HOP-62 NSCLC = system: HOP-62 NSCLC
# SW-620 colon = system: SW-620 colon
# OVCAR-4 ovarian = system: OVCAR-4 ovarian
# SNB-19 CNS = system: SNB-19 CNS
# 786-0 renal = system: 786-0 renal
# DU-145 prostate = system: DU-145 prostate
# A549 NSCLC = system: A549 NSCLC
# U251 CNS = system: U251 CNS
# SK-MEL-28 melanoma = system: SK-MEL-28 melanoma
# HS 578T breast = system: HS 578T breast
# RXF 393 renal = system: RXF 393 renal
# BT-549 breast = system: BT-549 breast
# UACC-62 melanoma = system: UACC-62 melanoma
# PC-3 prostate = system: PC-3 prostate
# MOLT-4 leukemia = system: MOLT-4 leukemia
# LOX IMVI melanoma = system: LOX IMVI melanoma
# CCRF-CEM leukemia = system: CCRF-CEM leukemia
# UACC-257 melanoma = system: UACC-257 melanoma
# HT29 colon = system: HT29 colon
structure (smiles),measurement,setting,value
c1ccc2nc(Cn3c[n+](Cc4ccc5ccccc5n4)c4ccccc43)ccc2c1,GI50,OVCAR-3 ovarian,1.6 µM
same,TGI,OVCAR-3 ovarian,4.99 µM
same,GI50,SK-MEL-5 melanoma,1.45 µM
same,TGI,SK-MEL-5 melanoma,2.8 µM
same,GI50,NCI/ADR-RES ovarian,> 100 µM
same,TGI,NCI/ADR-RES ovarian,> 100 µM
same,GI50,ACHN renal,14.6 µM
same,TGI,ACHN renal,31.1 µM
same,GI50,NCI-H23 lung,1.47 µM
same,TGI,NCI-H23 lung,10.3 µM
same,GI50,UO-31 renal,7.08 µM
same,TGI,UO-31 renal,21.7 µM
same,GI50,MALME-3M melanoma,1.26 µM
same,TGI,MALME-3M melanoma,4.7 µM
same,GI50,TK-10 renal,3.49 µM
same,TGI,TK-10 renal,13.3 µM
same,GI50,SN12C renal,2.19 µM
same,TGI,SN12C renal,10.9 µM
same,GI50,HOP-62 NSCLC,2.97 µM
same,TGI,HOP-62 NSCLC,13.7 µM
same,GI50,SW-620 colon,3.3 µM
same,TGI,SW-620 colon,15.4 µM
same,GI50,OVCAR-4 ovarian,1.49 µM
same,TGI,OVCAR-4 ovarian,11.6 µM
same,GI50,SNB-19 CNS,2.22 µM
same,TGI,SNB-19 CNS,10.4 µM
same,GI50,786-0 renal,4.2 µM
same,TGI,786-0 renal,16.4 µM
same,GI50,DU-145 prostate,4.55 µM
same,TGI,DU-145 prostate,17 µM
same,GI50,A549 NSCLC,11.6 µM
same,TGI,A549 NSCLC,25.9 µM
same,GI50,U251 CNS,3.08 µM
same,TGI,U251 CNS,12.8 µM
same,GI50,SK-MEL-28 melanoma,2.38 µM
same,TGI,SK-MEL-28 melanoma,9.98 µM
same,GI50,HS 578T breast,3.19 µM
same,TGI,HS 578T breast,18.8 µM
same,GI50,RXF 393 renal,3.1 µM
same,TGI,RXF 393 renal,12 µM
same,GI50,BT-549 breast,1.95 µM
same,TGI,BT-549 breast,6.5 µM
same,GI50,UACC-62 melanoma,1.34 µM
same,TGI,UACC-62 melanoma,3.51 µM
same,GI50,PC-3 prostate,2.48 µM
same,TGI,PC-3 prostate,12.2 µM
same,GI50,MOLT-4 leukemia,3.37 µM
same,TGI,MOLT-4 leukemia,13 µM
same,GI50,LOX IMVI melanoma,1.91 µM
same,TGI,LOX IMVI melanoma,7.8 µM
same,GI50,CCRF-CEM leukemia,3.47 µM
same,TGI,CCRF-CEM leukemia,21 µM
same,GI50,UACC-257 melanoma,2.02 µM
same,TGI,UACC-257 melanoma,5.33 µM
same,GI50,HT29 colon,1.48 µM
same,TGI,HT29 colon,9.87 µM
